The results in this text go back to US20240150339A1, “Compounds and Their Use as PDE4 Activators” (Mironid Limited, priority 2021, published 2024).

Assay [1] concerns PTH-induced cAMP elevation in urine. As to the kind of experiment: In vivo model of hyperparathyroidism: PTH-induced cAMP elevation in urine in the anaesthetised rat. As to conditions: i.v. infusion, PTH challenge, urine collected from 90 to 120 min, result in words. The source says: Within the kidney, the binding of parathyroid hormone (PTH) to PTH receptors results in the Gas-mediated elevation of intracellular cAMP. This increase of intracellular cAMP results in extrusion of cAMP to the urine (Yates et al., J Clin Invest 81: 932-938, 1988). This experiment is based upon a modified Ellsworth-Howard assay (Kruse, K. and Kracht, U., European Journal of Pediatrics 146: 373-377, 1987) and conducted in anaesthetized rats. In this experiment, rats were anaesthetized using isoflurane and catheterised to allow the collection of urine from the bladder. After an initial stabilization period, test compounds were administered by i.v. infusion (modelled to steady state) from time 0-120 min. PTH challenge infusion (33 ug/kg/hour) was started after 60 min of test compound infusion and sustained for one hour (60-120 min). Urine collection was conducted in 30-minute periods. Urine cAMP levels were assessed by ELISA (R&D systems). Urine samples were prepared for analysis as per the manufacturer's instructions. A standard curve for cAMP was assayed for each experiment and samples were assessed using a standard dilution range of 1:2, 1:4, 1:8 and 1:16, ensuring that the resulting data remained on the linear portion of the standard curve. […] Urine cAMP concentration remained below 50,000 pmol/mL. […]

For assay [2], the target named is T1, PDE4D5 (Homo sapiens, UniProt Q08499).
T1 construct: Using Full-Length Human PDE4 Isoforms: Long Forms PDE4D5, PDE4C3, PDE4B1 and Short Form PDE4B2; made in house; cytosol fraction of the cell lysate, not purified
As to the kind of experiment: PDE assay, activation of full-length human PDE4D5 long form ([3H]cAMP radio-assay). In kind it is biochemical. The settings on record: 30 μM test compound; mean % increase in counts over basal activity. The gist of the method: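 Cytosol (100,000 g) from HEK293 cells overexpressing full-length human PDE4 was preincubated with compound for 15 min at room temperature in 10 mM Tris/5 mM MgCl2. Reaction ran with 1 μM [3H]cAMP for 10 min at 30° C, then snake venom conversion, Dowex separation and scintillation counting; activity reported as % increase.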

T1 sequence (Q08499 1-745 isoform Q08499-6): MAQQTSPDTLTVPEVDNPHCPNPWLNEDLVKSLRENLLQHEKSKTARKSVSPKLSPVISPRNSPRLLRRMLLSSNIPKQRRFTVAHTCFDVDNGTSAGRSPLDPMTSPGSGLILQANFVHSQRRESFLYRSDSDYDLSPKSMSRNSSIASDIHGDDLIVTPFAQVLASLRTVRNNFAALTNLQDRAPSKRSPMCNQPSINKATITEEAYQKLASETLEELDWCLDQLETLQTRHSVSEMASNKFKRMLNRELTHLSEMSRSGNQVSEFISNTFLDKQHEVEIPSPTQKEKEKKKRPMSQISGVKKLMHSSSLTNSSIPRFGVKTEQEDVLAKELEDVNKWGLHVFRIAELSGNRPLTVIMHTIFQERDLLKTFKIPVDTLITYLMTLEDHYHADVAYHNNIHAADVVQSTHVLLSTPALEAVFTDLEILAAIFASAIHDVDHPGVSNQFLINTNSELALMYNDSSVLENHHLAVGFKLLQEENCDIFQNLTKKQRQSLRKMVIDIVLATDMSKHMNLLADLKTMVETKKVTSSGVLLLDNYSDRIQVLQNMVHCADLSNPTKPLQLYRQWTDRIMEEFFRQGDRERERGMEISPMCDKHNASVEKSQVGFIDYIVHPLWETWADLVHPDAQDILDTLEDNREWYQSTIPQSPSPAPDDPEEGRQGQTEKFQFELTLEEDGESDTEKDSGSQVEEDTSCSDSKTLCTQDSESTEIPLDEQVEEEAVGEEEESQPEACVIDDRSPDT

Consider `Cc1ncccc1-c1nc2ccc(C(=O)N[C@H]3CCOc4ccccc43)cc2s1` [Example 7, (S)-N-(chroman-4-yl)-2-(2-methylpyridin-3-yl)benzo[d]thiazole-6-carboxamide], for which, in assay [1], the “Inhibition of PTH-induced cAMP elevation in rat urine (FIG. 3)” value was “inhibition”. Moreover, the activation at 30 µM in assay [2] stood at 109%.
